Assay results published in publication PMC12757481, “The dihydropyridine LA1011 modulates multiple Hsp90—co-chaperone interactions relevant to Alzheimer’s disease” (Cell Stress & Chaperones, 2025).
Where two headings read alike, the source gives them in different places. Each block holds one molecule with its values, some of them ahead of it.

Assays:
Hsp90 [1] = target: T1, Hsp90 (Saccharomyces cerevisiae, UniProt P02829); assay: ITC, LA1011 binding to nucleotide-free Hsp90; design: species or system yeast; settings: ITC 30 °C, 2 mM LA1011 injected into 30 μM Hsp90
T1 construct: made in house
Procedure: (§1) The heat of interaction was measured on an ITC200 microcalorimeter (Microcal) under the same buffer conditions (20 mM Tris, pH 7.5, containing 5 mM NaCl), except for experiments using PP5, where we omitted EDTA and used 1 μM MnCl2. In experiments using nucleotide, we used 5 mM AMPPNP and 6 mM MgCl2. For experiments using Aha1 with AMPPNP the buffer contained 100 mM NaCl. Similarly, Sgt1 experiments also included 100 mM NaCl in the buffer. […] Heats of dilution were determined by diluting the injectant into the buffer. Data were fitted using a curve-fitting algorithm (Microcal Origin) either as a one-site binding event or as two independent binding sites as required.
(§2) To circumvent this limitation, we can alternatively fit the two sites as equal thermodynamic events, and the Kd value or values(s) returned then act as an indicator for changes in the overall affinity for LA1011 binding. […] Thus, our overall approach is to use a stoichiometry of 1:1 that represents the binding of two LA1011 molecules (because there are two binding sites) per Hsp90 dimer, except where we are confident that the stoichiometry is 2:1 (Hsp90 dimer and one LA1011 molecule). […] Thus, prior to choosing the ITC fitting parameters, we first consider the availability of both LA1011 binding sites for complexes of Hsp90 with its co-chaperone partner. […]

Hsp90-AMPPNP = target: T2, Hsp90-AMPPNP (Saccharomyces cerevisiae, UniProt P02829); assay: ITC, LA1011 binding to Hsp90-AMPPNP; design: species or system yeast; settings: 30 μM Hsp90, 5 mM AMPPNP
T2 construct: made in house
Procedure: as §1, §2

Hsp90-FKBP51 = target: T3, Hsp90-FKBP51 (Saccharomyces cerevisiae, UniProt P02829); assay: ITC, LA1011 binding to Hsp90-FKBP51 complex; design: species or system yeast; settings: 30 μM Hsp90, 60 μM FKBP51, 2:1 fit
T3 construct: made in house
Procedure: as §1
(§3) Thus, our overall approach is to use a stoichiometry of 1:1 that represents the binding of two LA1011 molecules (because there are two binding sites) per Hsp90 dimer, except where we are confident that the stoichiometry is 2:1 (Hsp90 dimer and one LA1011 molecule).

Hsp90-FKBP52 = target: T4, Hsp90-FKBP52 (Saccharomyces cerevisiae, UniProt P02829); assay: ITC, LA1011 binding to Hsp90-FKBP52 complex; design: species or system yeast; settings: 30 μM Hsp90, 60 μM FKBP52, 2:1 fit
T4 construct: made in house
Procedure: as §1, §3

Hsp90-CHIP = target: T5, Hsp90-CHIP (Saccharomyces cerevisiae, UniProt P02829); assay: ITC, LA1011 binding to Hsp90-mouse CHIP complex; design: species or system yeast; settings: 20 μM Hsp90, 60 μM CHIP
T5 construct: made in house
Procedure: as §1, §2

Hsp90-p23-PNP = target: T6, Hsp90-p23-PNP (Saccharomyces cerevisiae, UniProt P02829); assay: ITC, LA1011 binding to AMPPNP-Hsp90-p23 complex; design: species or system yeast; settings: 30 μM Hsp90, 200 μM p23, 5 mM Mg-PNP
T6 construct: made in house
Procedure: as §1, §2

Hsp90-Aha1 = target: T7, Hsp90-Aha1 (Saccharomyces cerevisiae, UniProt P02829); assay: ITC, LA1011 binding to nucleotide-free Hsp90-yeast Aha1 complex; settings: 20 μM Hsp90, 40 μM yAha1, nucleotide-free
T7 construct: made in house
Procedure: as §1, §2

Hsp90-CDC37 = target: T8, Hsp90-CDC37 (Saccharomyces cerevisiae, UniProt P02829); assay: ITC, LA1011 binding to Hsp90-CDC37 complex; design: species or system yeast
T8 construct: made in house
Procedure: as §1, §3

Hsp90-Sgt1 = target: T9, Hsp90-Sgt1 (Saccharomyces cerevisiae, UniProt P02829); assay: ITC, LA1011 binding to Hsp90-Sgt1 complex; design: species or system yeast; settings: 30 μM Hsp90, 60 μM Sgt1, 100 mM NaCl, 2:1 fit
T9 construct: made in house
Procedure: as §1, §3

Hsp90 [2] = target: T1, Hsp90; assay: Lactate-dehydrogenase and pyruvate-kinase-linked Hsp90 ATPase assay; assay type: biochemical, yeast; settings: for effect on Hsp90 ATPase activity: 2 μM Hsp90; for effect of LA1011 on the co-chaperone directed regulation of Hsp90 ATPase activity: 2 μM Hsp90, 240 μM LA1011, co-chaperone 0.25 to 30 μM, normalized data compared with control lacking LA1011
Procedure: ATPase assays using 2 μM Hsp90 were conducted as previously described using the lactate-dehydrogenase and pyruvate-kinase-linked assay.[12] Briefly, 240 μM of LA1011 was used in assays as required. Co-chaperones were added to Hsp90 and Hsp90-LA1011 complex at a variety of concentrations ranging from 0.25 to 30 μM. Assays utilizing LA1011 were normalized by recalculating the activity for all data points so that the data points were converted to a percentage of the activity relative to the first data point, which lacked any addition of co-chaperone. The first data point was therefore 100% max Hsp90 activity. All assays were conducted at least in triplicate.
To assess the effect of LA1011 on the mechanistic action of co-chaperones, we used the lactate-dehydrogenase and pyruvate-kinase-linked Hsp90 ATPase assay. We first assessed the effect of each co-chaperone on Hsp90 ATPase activity and then compared its effect on a Hsp90-LA1011 complex.

Hsp90-HOP = Hsp90-HOP (Saccharomyces cerevisiae, UniProt P02829); settings: ITC, 20 μM Hsp90, 40 μM HOP
Procedure: as §1, §3

APPxPS1 AD mouse model = test system: APPxPS1 AD mouse model; design: method as in PMID 27163800; settings: APPxPS1 mice, versus untreated mice; cited from earlier work
Hsp90 [3] = target: Hsp90; design: method as in PMID 29930942; settings: previously measured; cited from earlier work
Hsp90 [4] = target: T1, Hsp90; assay: ITC, co-chaperone binding to Hsp90; design: species or system yeast
Procedure: (§4) The heat of interaction was measured on an ITC200 microcalorimeter (Microcal) under the same buffer conditions (20 mM Tris, pH 7.5, containing 5 mM NaCl), except for experiments using PP5, where we omitted EDTA and used 1 μM MnCl2. In experiments using nucleotide, we used 5 mM AMPPNP and 6 mM MgCl2. For experiments using Aha1 with AMPPNP the buffer contained 100 mM NaCl. Similarly, Sgt1 experiments also included 100 mM NaCl in the buffer. […] To assess co-chaperone binding to Hsp90 and Hsp90-LA1011 complex, we generally injected aliquots of co-chaperone at concentrations ranging from 200 to 400 μM into the microcell containing the Hsp90 or Hsp90-LA1011 complex at concentrations ranging from 20 to 30 μM of Hsp90 or Hsp90 in complex with 2 mM LA1011 at 30 °C. Heats of dilution were determined by diluting the injectant into the buffer. Data were fitted using a curve-fitting algorithm (Microcal Origin) either as a one-site binding event or as two independent binding sites as required.

Hsp90-LA1011 = target: T10, Hsp90-LA1011 (Saccharomyces cerevisiae, UniProt P02829); assay: ITC, co-chaperone binding to Hsp90-LA1011 complex; design: species or system yeast
T10 construct: made in house
Procedure: as §4

Hsp90-PNP = target: T11, Hsp90-PNP (Saccharomyces cerevisiae, UniProt P02829); assay: ITC, co-chaperone binding to Hsp90-AMPPNP; design: species or system yeast; settings: 5 mM AMPPNP, no LA1011, for Aha1 the Hsp90-PNP was the injectant
T11 construct: made in house
Procedure: as §4

Hsp90-LA1011-PNP = target: T12, Hsp90-LA1011-PNP (Saccharomyces cerevisiae, UniProt P02829); assay: ITC, co-chaperone binding to Hsp90-AMPPNP-LA1011 complex; design: species or system yeast; settings: 5 mM AMPPNP, 2 mM LA1011, for Aha1 the Hsp90-LA1011-PNP was the injectant
T12 construct: made in house
Procedure: as §4

[5] = ITC 30 °C, co-chaperone and Hsp90 without LA1011, one-site fit, read-out: Kd
[6] = ITC 30 °C, Hsp90 in complex with 2 mM LA1011, one-site fit, read-out: Kd

T1 sequence (P02829 whole entry): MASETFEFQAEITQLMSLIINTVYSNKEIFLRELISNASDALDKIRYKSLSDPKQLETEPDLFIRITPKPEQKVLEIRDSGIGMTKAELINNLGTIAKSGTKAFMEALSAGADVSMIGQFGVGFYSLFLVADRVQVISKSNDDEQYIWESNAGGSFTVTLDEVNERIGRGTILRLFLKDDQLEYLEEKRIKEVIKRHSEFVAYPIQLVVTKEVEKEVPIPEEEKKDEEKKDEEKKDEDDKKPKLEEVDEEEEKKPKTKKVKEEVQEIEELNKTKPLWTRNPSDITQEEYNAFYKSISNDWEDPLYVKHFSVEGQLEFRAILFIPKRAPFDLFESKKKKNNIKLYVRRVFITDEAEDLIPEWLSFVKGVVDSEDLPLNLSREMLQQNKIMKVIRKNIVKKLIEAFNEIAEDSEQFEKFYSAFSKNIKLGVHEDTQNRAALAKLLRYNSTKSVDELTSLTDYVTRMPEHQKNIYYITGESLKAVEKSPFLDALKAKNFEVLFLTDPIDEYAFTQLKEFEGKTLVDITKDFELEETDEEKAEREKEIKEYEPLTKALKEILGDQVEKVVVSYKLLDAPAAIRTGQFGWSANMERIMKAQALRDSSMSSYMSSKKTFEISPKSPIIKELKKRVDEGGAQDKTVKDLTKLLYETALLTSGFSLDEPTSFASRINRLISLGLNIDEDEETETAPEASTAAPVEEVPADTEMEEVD
T10 sequence (P02829 whole entry): as above
T6 sequence (P02829 whole entry): as above
T6 sequence (P28707 whole entry partner): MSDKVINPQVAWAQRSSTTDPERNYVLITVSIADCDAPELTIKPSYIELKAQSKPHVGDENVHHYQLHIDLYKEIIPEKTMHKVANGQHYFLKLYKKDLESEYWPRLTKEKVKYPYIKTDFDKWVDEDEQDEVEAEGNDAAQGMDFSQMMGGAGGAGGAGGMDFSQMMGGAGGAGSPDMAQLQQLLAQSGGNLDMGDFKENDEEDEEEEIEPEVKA
T11 sequence (P02829 whole entry): as the sequence (P02829 whole entry) above
T2 sequence (P02829 whole entry): as above
Sequence of Hsp90-HOP (P02829 whole entry): as above
Sequence of Hsp90-HOP (P31948 whole entry partner): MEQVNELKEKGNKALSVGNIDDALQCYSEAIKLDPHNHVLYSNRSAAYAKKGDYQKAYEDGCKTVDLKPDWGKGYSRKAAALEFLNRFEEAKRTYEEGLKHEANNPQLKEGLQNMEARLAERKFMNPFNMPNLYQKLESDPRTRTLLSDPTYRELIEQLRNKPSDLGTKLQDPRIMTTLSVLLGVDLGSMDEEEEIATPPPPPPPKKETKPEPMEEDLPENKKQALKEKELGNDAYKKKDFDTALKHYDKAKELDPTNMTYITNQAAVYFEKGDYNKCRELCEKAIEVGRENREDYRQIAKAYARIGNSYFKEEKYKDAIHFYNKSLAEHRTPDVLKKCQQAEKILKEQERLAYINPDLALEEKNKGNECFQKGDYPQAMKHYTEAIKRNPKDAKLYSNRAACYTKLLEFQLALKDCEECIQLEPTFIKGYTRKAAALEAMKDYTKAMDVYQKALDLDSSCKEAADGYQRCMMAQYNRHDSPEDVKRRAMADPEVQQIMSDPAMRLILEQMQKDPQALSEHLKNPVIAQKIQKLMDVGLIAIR

Molecule: COC(=O)C1=C(CCN(C)C)N(C)C(CCN(C)C)=C(C(=O)OC)C1c1ccc(C(F)(F)F)cc1.Cl.Cl [LA1011, dimethyl 4-(4-Trifluoro-methyl-phenyl)-2,6-bis(2-dimethylamino-ethyl)-1-methyl-1-4 dihydropyridine-3-5-dicarboxylate dihydrochloride]
Kd (Hsp90 [1]; 1:1 stoichiometric fit, read-out: Kd (1:1)): 19.8 ± 2.2 µM
Kd (Hsp90 [1]; 2:1 (Hsp90:LA1011) stoichiometric fit, read-out: Kd (2:1)): 28.9 ± 1.7 µM
Kd (Hsp90-AMPPNP; 1:1 fit, read-out: Kd (1:1)): 58.8 ± 24.2 µM
Kd (Hsp90-AMPPNP; 2:1 fit, read-out: Kd (2:1)): 73 ± 3.1 µM
Kd (Hsp90-FKBP51): 79.4 ± 33.5 µM
Kd (Hsp90-FKBP52): 56.2 ± 5.8 µM
Kd (Hsp90-CHIP; 1:1 fit, read-out: Kd (1:1)): 56.2 ± 26.2 µM
Kd (Hsp90-CHIP; 2:1 fit, read-out: Kd (2:1)): 69 ± 2 µM
Kd (Hsp90-p23-PNP; 1:1 fit, read-out: Kd (1:1)): 58.8 ± 3.5 µM
Kd (Hsp90-p23-PNP; 2:1 fit, read-out: Kd (2:1)): 73 ± 4.5 µM
Kd (Hsp90-Aha1; 1:1 fit, read-out: Kd (1:1)): 118 ± 8 µM
Kd (Hsp90-Aha1; 2:1 fit, read-out: Kd (2:1)): 53.2 ± 5.5 µM
Kd (Hsp90-CDC37; 20 μM Hsp90, 40 μM CDC37, 1:1 fit, read-out: Kd (1:1)): 4.2 ± 0.8 µM
Kd (Hsp90-CDC37; 20 μM Hsp90, 40 μM CDC37, 2:1 fit, read-out: Kd (2:1)): 9.5 ± 2.5 µM
Kd (Hsp90-Sgt1): 8.2 ± 1 µM
effect on Hsp90 ATPase activity (Hsp90 [2]): activators of Hsp90 ATPase activity
Kd (Hsp90-HOP; read-out: Kd (1:1), 1:1 fit): 8.8 ± 1.3 µM
Kd (Hsp90-HOP; read-out: Kd (2:1), 2:1 fit): 8.8 ± 1.3 µM
amyloid-beta (Aβ) plaques (APPxPS1 AD mouse model): decreases
dendritic spine density (APPxPS1 AD mouse model): increase in the dendritic spine density
heat-shock-response (APPxPS1 AD mouse model): co-induction of the heat-shock-response
neurofibrillary tangles (APPxPS1 AD mouse model): decreases in neurofibrillary tangles
neuron number (APPxPS1 AD mouse model): increase in neuron number
Kd (Hsp90 [3]): 13.5 µM

Molecule: Aha1: yeast Aha1, late-cycle Hsp90 co-chaperone and activator of Hsp90 ATPase activity
Kd (Hsp90 [4]; [5]): 2.4 ± 0.2 µM
Kd (Hsp90-LA1011; [6]): 3.3 ± 0.4 µM
Kd (Hsp90-PNP): 1.2 µM
Kd (Hsp90-LA1011-PNP): 1.8 µM
effect on Hsp90 ATPase activity (Hsp90 [2]): activators of Hsp90 ATPase activity
effect of LA1011 on the co-chaperone directed regulation of Hsp90 ATPase activity (Hsp90 [2]): significantly less Aha1 is required to fully activate Hsp90

Molecule: CDC37: Hsp90 co-chaperone of early complex assembly
Kd (Hsp90 [4]; [5]): 1.59 µM
Kd (Hsp90-LA1011; [6]): 1.3 µM
effect of LA1011 on the co-chaperone directed regulation of Hsp90 ATPase activity (Hsp90 [2]): unaffected by the presence of LA1011

Kd (Hsp90 [4]; [5]): 0.43 µM
Kd (Hsp90-LA1011; [6]): 0.3 µM
Molecule: HOP: Hsp90 co-chaperone found in early complexes of the chaperone cycle

Kd (Hsp90 [4]; [5]): 6.9 µM
Kd (Hsp90-LA1011; [6]): 11.6 µM
Molecule: Hch1: Hsp90 co-chaperone homologous to the N-terminal domain of Aha1

Kd (Hsp90 [4]; ITC, Hsp90 without LA1011, two-site fit, value listed first in Table 2 and figures, read-out: Kd (two-site fit, first value listed)): 0.64 µM
Kd (Hsp90 [4]; ITC, Hsp90 without LA1011, two-site fit, value listed second in Table 2 and figures, read-out: Kd (two-site fit, second value listed)): 0.16 µM
Kd (Hsp90-LA1011; ITC, Hsp90 with 2 mM LA1011, two-site fit, value listed first in Table 2 and figures, read-out: Kd (two-site fit, first value listed)): 9.6 µM
Kd (Hsp90-LA1011; ITC, Hsp90 with 2 mM LA1011, two-site fit, value listed second in Table 2 and figures, read-out: Kd (two-site fit, second value listed)): 9.2 µM
Molecule: PP5: full-length PP5, phosphatase co-chaperone of Hsp90

Molecule: Sti1: the yeast homolog of human HOP
effect of LA1011 on the co-chaperone directed regulation of Hsp90 ATPase activity (Hsp90 [2]): unaffected by the presence of LA1011

Molecule: p23: Hsp90 co-chaperone that promotes the closed conformation of Hsp90
Kd (Hsp90-PNP): 4.2 µM
Kd (Hsp90-LA1011-PNP): 8.9 µM
effect of LA1011 on the co-chaperone directed regulation of Hsp90 ATPase activity (Hsp90 [2]): unaffected by the presence of LA1011
